Laboratory results: patent US6399579B1, “Compositions comprising icariside I and anhydroicaritin and methods for making the same” (Hauser, Inc., priority 2000, dated 2002)
Read-outs that look alike come from different tables or passages of the source.

How the values were obtained:
[1] = biological target: phosphodiesterase type V (PDE-5) (Homo sapiens, UniProt O76074); experiment: PDE-5 inhibition assay; format: biochemical
[2] = Partition of icariside I between ethyl acetate and water; format: physicochemical; conditions: hydrolyzate adjusted to pH 7.0
Protocol: The ethanolic hydrolyzate (25 mL) prepared in Example 1 was mixed with 62.5 mL of de-ionized water and the pH was adjusted to 7.0 using 50% (w/w) sodium hydroxide solution. The resulting mixture was extracted with three 25 mL portions of ethyl acetate and the combined ethyl acetate extracts were back extracted with 150 mL of water.

Row | PDE-5 inhibition (in words) [1] | IC50 ([1]; read-out: PDE-5 IC50 (converted)) | partition coefficient between ethyl acetate and water [2] | IC50 [1] | PDE-5 inhibition (in words) ([1]; listed as anhydroicaritin) | PDE-5 IC50 [1] | SMILES
1 | strong PDE-5 inhibitor | 0.622 µM | 16 | – | – | – | COc1ccc(-c2oc3c(CC=C(C)C)c(O[C@@H]4O[C@H](CO)[C@@H](O)[C@H](O)[C@H]4O)cc(O)c3c(=O)c2O)cc1 [Entry 10, icariside I]
2 | significant inhibition of PDE-5 | – | – | 4.07 µM | strong PDE-5 inhibitor | – | COc1ccc(-c2oc3c(CC=C(C)C)c(O)cc(O)c3c(=O)c2O)cc1 [Entry 11, anhydroicaritin]
3 | essentially inactive | – | – | – | – | 21.50 μg/mL | COc1ccc(-c2oc3c(CCC(C)(C)O)c(O[C@@H]4O[C@H](CO)[C@@H](O)[C@H](O)[C@H]4O)cc(O)c3c(=O)c2O)cc1 [Entry 12, icariside I hydrate]
